The supplement of paper PMC10307832

Tests used:
Assay in all cases: relative viability (nuclei count vs DMSO), 5 days (fraction); higher = more cells survive
Cediranib + Lapatinib = compound: COc1cc2c(Oc3ccc4[nH]c(C)cc4c3F)ncnc2cc1OCCCN1CCCC1 [Cediranib] + CS(=O)(=O)CCNCc1ccc(-c2ccc3ncnc(Nc4ccc(OCc5cccc(F)c5)c(Cl)c4)c3c2)o1 [Lapatinib] (partner 2 µM)
How it was run: (§1)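 A single step with final 0.05% Triton X-100, 1% formaldehyde and 1 ug/ml Hoechst fixed the cells and stained nuclei 5 days after treatment. Lung cancer cell lines in 1536-well plates had been treated by pin tool the day after seeding with one drug alone or a fixed anchor-drug dose plus five library-drug doses (not always all listed) in √10 steps, and nuclei were counted on 4× images. Relative viability is the ratio of nuclei in treated wells to nuclei in vehicle wells, taken as the median of duplicate plates.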

Cediranib + Phenformin = compound: COc1cc2c(Oc3ccc4[nH]c(C)cc4c3F)ncnc2cc1OCCCN1CCCC1 [Cediranib] + N=C(N)NC(=N)NCCc1ccccc1 [Phenformin] (partner 250 µM)
How it was run: as §1

Decitabine + Palbociclib = compound: Nc1ncn([C@H]2C[C@H](O)[C@@H](CO)O2)c(=O)n1 [Decitabine] + CC(=O)c1c(C)c2cnc(Nc3ccc(N4CCNCC4)cn3)nc2n(C2CCCC2)c1=O [Palbociclib] (partner 0.5 µM)
How it was run: as §1

Decitabine + AZD7762 = compound: Nc1ncn([C@H]2C[C@H](O)[C@@H](CO)O2)c(=O)n1 [Decitabine] + NC(=O)Nc1cc(-c2cccc(F)c2)sc1C(=O)N[C@H]1CCCNC1 [AZD7762] (partner 0.2 µM)
How it was run: as §1

PC-3 [JPC-3]
relative viability (Cediranib + Lapatinib; first compound 0.04 µM): 0.479
relative viability (Cediranib + Lapatinib; first compound 0.1265 µM): 0.554
relative viability (Cediranib + Lapatinib; first compound 0.4 µM): 0.472
relative viability (Cediranib + Lapatinib; first compound 1.265 µM): 0.391
relative viability (Cediranib + Lapatinib; first compound 4 µM): 0.45
relative viability (Cediranib + Phenformin; first compound 0.04 µM): 0.462
relative viability (Cediranib + Phenformin; first compound 0.1265 µM): 0.498
relative viability (Cediranib + Phenformin; first compound 0.4 µM): 0.489
relative viability (Cediranib + Phenformin; first compound 1.265 µM): 0.472
relative viability (Cediranib + Phenformin; first compound 4 µM): 0.468
relative viability (Decitabine + Palbociclib; first compound 0.1265 µM): 0.572
relative viability (Decitabine + Palbociclib; first compound 0.4 µM): 0.496
relative viability (Decitabine + Palbociclib; first compound 1.265 µM): 0.493
relative viability (Decitabine + Palbociclib; first compound 4 µM): 0.511
relative viability (Decitabine + AZD7762; first compound 0.1265 µM): 0.793
relative viability (Decitabine + AZD7762; first compound 0.4 µM): 0.6
relative viability (Decitabine + AZD7762; first compound 1.265 µM): 0.453
relative viability (Decitabine + AZD7762; first compound 4 µM): 0.602

HCC-44
relative viability (Cediranib + Lapatinib; first compound 0.04 µM): 0.982
relative viability (Cediranib + Lapatinib; first compound 0.4 µM): 0.951
relative viability (Cediranib + Lapatinib; first compound 1.265 µM): 0.995
relative viability (Cediranib + Lapatinib; first compound 4 µM): 0.949
relative viability (Cediranib + Phenformin; first compound 0.04 µM): 0.195
relative viability (Cediranib + Phenformin; first compound 0.4 µM): 0.241
relative viability (Cediranib + Phenformin; first compound 1.265 µM): 0.224
relative viability (Cediranib + Phenformin; first compound 4 µM): 0.201
relative viability (Decitabine + Palbociclib; first compound 0.04 µM): 1.01
relative viability (Decitabine + Palbociclib; first compound 0.1265 µM): 0.935
relative viability (Decitabine + Palbociclib; first compound 0.4 µM): 0.808
relative viability (Decitabine + Palbociclib; first compound 1.265 µM): 0.761
relative viability (Decitabine + Palbociclib; first compound 4 µM): 0.873
relative viability (Decitabine + AZD7762; first compound 0.04 µM): 1.08
relative viability (Decitabine + AZD7762; first compound 0.1265 µM): 0.974
relative viability (Decitabine + AZD7762; first compound 0.4 µM): 0.932
relative viability (Decitabine + AZD7762; first compound 1.265 µM): 1.06
relative viability (Decitabine + AZD7762; first compound 4 µM): 1.06

NCI-H2405
relative viability (Cediranib + Lapatinib; first compound 0.04 µM): 1.02
relative viability (Cediranib + Lapatinib; first compound 0.1265 µM): 1.13
relative viability (Cediranib + Lapatinib; first compound 0.4 µM): 1.11
relative viability (Cediranib + Lapatinib; first compound 1.265 µM): 1.13
relative viability (Cediranib + Lapatinib; first compound 4 µM): 1.09
relative viability (Cediranib + Phenformin; first compound 0.04 µM): 0.358
relative viability (Cediranib + Phenformin; first compound 0.1265 µM): 0.422
relative viability (Cediranib + Phenformin; first compound 0.4 µM): 0.378
relative viability (Cediranib + Phenformin; first compound 1.265 µM): 0.38
relative viability (Cediranib + Phenformin; first compound 4 µM): 0.368
relative viability (Decitabine + Palbociclib; first compound 0.04 µM): 0.511
relative viability (Decitabine + Palbociclib; first compound 0.1265 µM): 0.516
relative viability (Decitabine + Palbociclib; first compound 0.4 µM): 0.436
relative viability (Decitabine + Palbociclib; first compound 1.265 µM): 0.397
relative viability (Decitabine + Palbociclib; first compound 4 µM): 0.349
relative viability (Decitabine + AZD7762; first compound 0.04 µM): 0.814
relative viability (Decitabine + AZD7762; first compound 0.1265 µM): 0.902
relative viability (Decitabine + AZD7762; first compound 0.4 µM): 0.977
relative viability (Decitabine + AZD7762; first compound 1.265 µM): 0.501
relative viability (Decitabine + AZD7762; first compound 4 µM): 0.431

LXF-289
relative viability (Cediranib + Lapatinib; first compound 0.04 µM): 0.988
relative viability (Cediranib + Lapatinib; first compound 0.1265 µM): 0.816
relative viability (Cediranib + Lapatinib; first compound 0.4 µM): 0.852
relative viability (Cediranib + Lapatinib; first compound 1.265 µM): 0.958
relative viability (Cediranib + Lapatinib; first compound 4 µM): 0.846
relative viability (Cediranib + Phenformin; first compound 0.04 µM): 0.565
relative viability (Cediranib + Phenformin; first compound 0.1265 µM): 0.404
relative viability (Cediranib + Phenformin; first compound 0.4 µM): 0.487
relative viability (Cediranib + Phenformin; first compound 1.265 µM): 0.49
relative viability (Cediranib + Phenformin; first compound 4 µM): 0.549
relative viability (Decitabine + Palbociclib; first compound 0.04 µM): 0.539
relative viability (Decitabine + Palbociclib; first compound 0.1265 µM): 0.418
relative viability (Decitabine + Palbociclib; first compound 0.4 µM): 0.346
relative viability (Decitabine + Palbociclib; first compound 1.265 µM): 0.27
relative viability (Decitabine + Palbociclib; first compound 4 µM): 0.238
relative viability (Decitabine + AZD7762; first compound 0.04 µM): 0.82
relative viability (Decitabine + AZD7762; first compound 0.1265 µM): 0.756
relative viability (Decitabine + AZD7762; first compound 0.4 µM): 0.47
relative viability (Decitabine + AZD7762; first compound 1.265 µM): 0.316
relative viability (Decitabine + AZD7762; first compound 4 µM): 0.332
